Assays:
[1] = after intraperitoneal administration; ref Mora et al., 1997; cited from earlier work
Description: The preferred dosing range of TB4 seems to be 2–12 mg/kg both when using single and repeated strategies. […] We wanted to condition the heart before the operation and also affect the immediate post-operative reperfusion period and gave the animals two doses of TB4. Under physiological conditions, concentrations of the peptide in plasma and se ...

[2] = tested on: citrated whole blood; experiment: Rotem thromboelastometry in vitro (EXTEM, INTEM, FIBTEM); parameters: species or system pig; conditions: for maximum clot firmness, FIBTEM: 1 h room temperature, platelets inhibited, three animals, mean ± SD
Description: Rotem®thromboelastometry (Tem Innovations GmbH, Basel, Switzerland) analysis was performed in vitro on blood samples from three blood-donor animals. TB4 was added to citrated whole blood to achieve two different concentrations (0.1 mM and 1 mM) and incubated at room temperature for 1 h. Untreated blood samples served as controls. The samples were analyzed and three parameters were drawn from the results at 60 min: Maximum clot firmness (stability of the blood clot), clotting time (time to clot formation), and maximum lysis of the blood clot. Assays used were EXTEM, INTEM, and FIBTEM. EXTEM measures the activity of the extrinsic pathway with tissue factor activation and INTEM of the intrinsic pathway with contact activation. FIBTEM is used for the assessment of fibrinogen status by complete platelet inhibition.

[3] = statement in discussion; ref Cierniewski et al., 2012; cited from earlier work
Text: Thymosin beta 4 is normally found in the cytosol and also in the nucleus of cells but lacks a signal sequence for exocytosis. It is unclear whether the high concentrations found in extracellular fluids, is due to active secretion of the peptide or secondary to degranulation of inflammatory cells or cell membrane rupture ([Watts et al., 1990]; [Huff et al., 2001]). TB4 is water soluble and rapidly internalized by endothelial cells in vitro where it binds to actin and participates in the dynamics of the cytoskeleton ([Cierniewski et al., 2012]). At very high concentrations there is also some bin ...

[4] = tested on: small mesentery arteries; experiment: Artery wire myography, small mesentery arteries; parameters: species or system pig
Text: (§1) Eighteen representative segments of small mesentery arteries and coronary arteries (250–350 μm in diameter) from 4 blood-donor pigs were studied by wire myography for contractile responses to TB4 in vitro. Samples were excised rapidly and placed in ice-cold oxygenated Krebs solution. The composition of the Krebs solution was as follows (in mM): 119 NaCl, 4.7 KCl, 25 NaHCO3, 1.2 NaH2PO4, 2.5 CaCl2, 1.2 MgSO4, and 5.5 glucose. Arterial rings (2 mm in length) were mounted using 40 μm wires in a microvessel myograph (Danish Myograph Technologies, Aarhus, Denmark) for isometric tension recordings. After mounting, vessels were equilibrated, normalized and contracted repeatedly with 62 mM potassium chloride until maximal and reproducible contractions were obtained. To examine the contracting effects of TB4, dose-response curves to TB4 (10-8-10-2 M) were constructed and compared to KCl-induced contraction. Relaxation was studied in thromboxane (TXA2) precontracted arterial rings. The precontraction was adjusted to 20–40% of the reference contraction to 62 mM KCl, which after cumulative concentrations of TB4 was added to the organ bath. To evaluate the role of NO on the effects of TB4 induced vasodilation, experiments were repeated in arteries incubated with L-NNA, a NO synthase inhibitor (100 μM, 30 min). Data were collected and analyzed using Powerlab and Chart5 softwares (ADI Instruments, Colorado Springs, CO, USA).

[5] = tested on: coronary arteries; experiment: Artery wire myography, coronary arteries; parameters: species or system pig
Text: as §1

[6] = tested on: global myocardial ischemia-reperfusion injury; experiment: Cardiac 15O-water PET, myocardial blood flow; type: in vivo; conditions: pig; 25 h post-reperfusion; n = 4; mean ± SD; p = 0.86 vs control
Description: (§2) The lung was displaced and the pericardium opened. […] Blood lactate levels were monitored to ensure adequate perfusion. […] After weaning, the animals were decannulated. […] The thoracotomy wound was closed in three layers.
The pigs underwent cardiac PET scans 25–26 h post-reperfusion to determine MBF during rest and adenosine stress. PET studies were performed with ECAT EXACT HR+ scanner (Siemens-CTI, Knoxville, TN, USA). Myocardial perfusion was evaluated by PET with ^15O-radiolabeled water (808 ± 129 MBq) both at rest and during intravenous adenosine stress (200 μg/kg/min). The acquisition frames were as follows: 14 × 5 s, 3 × 10 s, 3 × 20 s, and 4 × 30 s (total duration 4 min 40 s). The acquired PET data were reconstructed in 2D mode with an iterative reconstruction algorithm OSEM using six iteration and 16 subsets in the reconstruction. The transaxial field of view (35 cm) was reconstructed in a 128 × 128 matrix, yielding a pixel size of 2.57 mm × 2.57 mm. The measurements were corrected for scatter, random counts, and dead time. The device produces 63 axial planes with a slice thickness of 2.43 mm. Global myocardial perfusion (ml/g/min) was measured using Carimas 2 software (Turku PET Centre, Turku, Finland^1).

[7] = tested on: global myocardial ischemia-reperfusion injury; type: in vivo, pig
Description: The lung was displaced and the pericardium opened. […] Blood lactate levels were monitored to ensure adequate perfusion. […] After weaning, the animals were decannulated. […] The thoracotomy wound was closed in three layers. […] MRI study was performed at 1.5 T system (Philips GyroscanIntera Nova Dual MR, Philips Medical Systems, Best, The Netherlands) with a phased-array torso coil and a vector cardiographic method for ECG-gating. All acquisitions were obtained during short breath hold periods. Each MRI study consisted of cine imaging of both ventricles for volumetrics and wall motion at rest. Late enhancement (LE) imaging was applied for scar assessment. […] A phase-sensitive inversion recovery T1-TFE pulse sequence was applied for LE imaging 10 min after injecting gadoterate meglumine (Dotarem 279.3 mg/mL, Guerbet, Roissy CdG, France) with a dose 0.3 mmol/kg. The following imaging parameters were used: prospective gating, TR/TE 4.0/1.2 ms, flip angle 15°, acquisition matrix 168 × 256, reconstruction matrix 256 × 256, FOV 320-360 mm, rFOV 100%, 8-15 slices/breath hold, slice thickness 6 mm, and gap 0 mm. TI was optimized individually using a TI-scout sequence. The whole LV was covered by LE images at SA orientation.

[8] = Serum TB4 concentration by EIA after intravenous infusion; conditions: pig, 6 mg/kg
Description: The pigs were pre-anesthetized with an intramuscular injection of 100 mg xylazin (Rompun vet, Bayer Animal Health GmbH, Leverkusen, Germany) and 25 mg midazolam (Midazolam Hameln, Hameln pharmaceuticals GmbH, Hameln, Germany). A peripheral ear vein was cannulated and the animals were medicated with 20 mg boluses of propofol (PropofolLipuro, B. Braun Melsungen AG, Melsungen, Germany) and 150 μg phentanyl (Fentanyl-Hameln, Hameln pharmaceuticals GmbH, Hameln, Germany) and were then intubated and connected to a respirator (Dräger Oxylog 3000, Drägerwerk AG, Lübeck, Germany). […] Anesthesia was maintained with a continuous infusion of propofol 15–30 mg/kg/h, phentanyl 1.5 μg/kg/h and midazolam 100 μg/kg/h. […] TB4 (supplied by RegeneRx Biopharmaceuticals Inc, Rockville, MD, USA) was suspended in sterile water to a concentration of 4 mg/ml (0.82 mM) and administered 6 mg/kg through a 15 min intravenous infusion 30 min before the start of the operation and 6 h later.
Serial serum samples were collected from two animals in both groups for pharmacokinetic studies of TB4 by EIA. The serum was prepared and analyzed as parallel samples according to the manufacturers’ manual (Thymosin β4 EIA Kit, Immundiagnostik AG, Bensheim, Germany). A coefficient of variation (calculated as: sample SD/sample mean) of less than 50% between parallel samples was accepted for final analysis.

[9] = Completion of the 30 h follow-up period; type: in vivo, pig; conditions: TB4 treatment group n = 6; one died after weaning from CPB (bradycardia), one 20 h after reperfusion (circulatory failure)
Text: Ten landrace pigs weighing 29–43 kg were operated on and divided into a TB4 treatment group (n = 6) and a control group (n = 4). All animal experiments were approved by the Laboratory Animal Care & Use Committee of the State Provincial Office of Southern Finland.
as §2

[10] = tested on: global myocardial ischemia-reperfusion injury; experiment: Cardiomyocyte apoptosis by TUNEL after CPB and aortic cross-clamping; type: in vivo; conditions: pig; TB4 6 mg/kg i.v. twice; 30 h post-reperfusion; mean ± SD; p = 0.20 vs other group
Description: as §2
Transmural tissue samples from the left and right ventricles were collected and fixed in formalin. Hematoxylin and eosin staining was performed for general histological analysis. Cardiomyocyte apoptosis was determined by terminal transferase nick end-labeling assay (TUNEL) as previously described ([Gavrieli et al., 1992]; [Saraste et al., 1997]). Positive apoptotic nuclei were counted over an ocular grid and presented as a percentage of total cardiomyocyte number in 10 randomly selected microscopic visual high power (×40) fields by an investigator blinded to group assignments.

[11] = tested on: global myocardial ischemia-reperfusion injury; conditions: pig, TB4 6 mg/kg i.v. twice, n = 4, mean ± SD
Description: The pigs were pre-anesthetized with an intramuscular injection of 100 mg xylazin (Rompun vet, Bayer Animal Health GmbH, Leverkusen, Germany) and 25 mg midazolam (Midazolam Hameln, Hameln pharmaceuticals GmbH, Hameln, Germany). A peripheral ear vein was cannulated and the animals were medicated with 20 mg boluses of propofol (PropofolLipuro, B. Braun Melsungen AG, Melsungen, Germany) and 150 μg phentanyl (Fentanyl-Hameln, Hameln pharmaceuticals GmbH, Hameln, Germany) and were then intubated and connected to a respirator (Dräger Oxylog 3000, Drägerwerk AG, Lübeck, Germany). The respiratory rate was set to 18–22 times/min with a tidal volume of 8–10 ml/kg using 40% oxygen. Blood gases were monitored to ensure adequate ventilation (i-STAT, Abbott Laboratories, Abbott Park, IL, USA). Anesthesia was maintained with a continuous infusion of propofol 15–30 mg/kg/h, phentanyl 1.5 μg/kg/h and midazolam 100 μg/kg/h. Preoperatively and every 8 h thereafter the animals received antibiotic prophylaxis (Cefuroxime 750 mg, Orion Pharma, Espoo, Finland). Before the heart was cannulated 10000 IU of heparin (Heparin, LEO Pharma, Ballerup, Denmark) was given as a bolus and the dose was repeated every 30 min during extracorporeal circulation. […]
The pigs were placed in a left lateral decubitus position and the chest was shaved and disinfected. […] Blood lactate levels were monitored to ensure adequate perfusion. […]

[12] = TB4 0.1 mM and 1 mM in whole blood

Compound: CC[C@H](C)[C@H](NC(=O)[C@H](CCC(=O)O)NC(=O)[C@H](C)NC(=O)[C@H](CCSC)NC(=O)[C@H](CC(=O)O)NC(=O)[C@@H]1CCCN1C(=O)[C@H](CCCCN)NC(=O)[C@H](CC(=O)O)NC(=O)[C@H](CO)NC(C)=O)C(=O)N[C@@H](CCC(=O)O)C(=O)N[C@@H](CCCCN)C(=O)N[C@@H](Cc1ccccc1)C(=O)N[C@@H](CC(=O)O)C(=O)N[C@@H](CCCCN)C(=O)N[C@@H](CO)C(=O)N[C@@H](CCCCN)C(=O)N[C@@H](CC(C)C)C(=O)N[C@@H](CCCCN)C(=O)N[C@@H](CCCCN)C(=O)N[C@H](C(=O)N[C@@H](CCC(=O)O)C(=O)N[C@H](C(=O)N[C@@H](CCC(N)=O)C(=O)N[C@@H](CCC(=O)O)C(=O)N[C@@H](CCCCN)C(=O)N[C@@H](CC(N)=O)C(=O)N1CCC[C@H]1C(=O)N[C@@H](CC(C)C)C(=O)N1CCC[C@H]1C(=O)N[C@@H](CO)C(=O)N[C@@H](CCCCN)C(=O)N[C@@H](CCC(=O)O)C(=O)N[C@H](C(=O)N[C@H](C(=O)N[C@@H](CCC(=O)O)C(=O)N[C@@H](CCC(N)=O)C(=O)N[C@@H](CCC(=O)O)C(=O)N[C@@H](CCCCN)C(=O)N[C@@H](CCC(N)=O)C(=O)N[C@@H](C)C(=O)NCC(=O)N[C@@H](CCC(=O)O)C(=O)N[C@@H](CO)C(=O)O)[C@@H](C)CC)[C@@H](C)O)[C@@H](C)O)[C@@H](C)O [TB4, Thymosin beta 4]
- time of maximal tissue concentration in heart [1]: 2 h
- blood clotting time [2, 12]: did not have an effect
- maximal blood clot fibrinolysis [2, 12]: did not have an effect
- maximum clot firmness, FIBTEM ([2]; TB4 0.1 mM in citrated whole blood): 37.3 ± 5.9 mm
- maximum clot firmness, FIBTEM ([2]; TB4 1 mM in citrated whole blood): 27.7 ± 4.2 mm
- solubility in water [3]: water soluble
- vasodilatation in mesenteric arteries ([4]; TXA2 precontracted arterial rings, cumulative TB4 concentrations): did not, however, induce vasodilatation
- contractile response, % of maximum potassium chloride stimulation ([4]; mesenteric arteries, TB4 0.1–1 mM, reference 62 mM KCl, arteries from four animals): 15–30%
- influence on vasoconstriction or vasodilation at physiological concentrations ([4]; physiological concentrations of TB4, mesentery and coronary arteries): did not observe any influence
- relaxation of coronary arteries ([5]; TXA2 precontracted porcine coronary rings, TB4 alone): modest endothelium-dependent relaxation
- relaxation of coronary arteries with nitric oxide synthase inhibitor ([5]; arteries incubated with L-NNA 100 μM, 30 min): abolished
- vasoconstriction in coronary arteries ([5]; dose-response to TB4 compared to KCl-induced contraction): nor did it induce vasoconstriction
- global myocardial blood flow during rest [6]: 1.92 ± 0.38 mL/g/min
- gadolinium contrast uptake on late-enhancement scans ([7]; 28 h post-reperfusion, any of the animals): No uptake of gadolinium contrast was observed
- valvular abnormalities on cardiac MRI ([7]; pig, in vivo): One animal in the TB4 group had mild tricuspid valve regurgitation
- left ventricle ejection fraction ([7]; pig, 28 h post-reperfusion, n = 4, mean ± SD, p = 0.45 vs control): 61.9 ± 10.6%
- LVESV ([7]; pig, 28 h post-reperfusion, n = 4, mean ± SD, p = 0.49): 23.3 ± 8.7 mL
- LVEDV ([7]; pig, 28 h post-reperfusion, n = 4, mean ± SD, p = 0.58): 60.1 ± 6.8 mL
- level at time molar at 0.25 h [8]: 960 nM
- level at time molar at 1 h [8]: 1250 nM
- animals not completing the follow-up period [9]: two animals did not complete the follow-up period
- TUNEL-positive apoptotic cells, right ventricle [10]: 0.94 ± 0.33%
- cTnT plasma concentration 6 h post-reperfusion ([11]; p = 0.27): 437 ± 291 ng/L
- cTnT plasma concentration 24 h post-reperfusion ([11]; p = 0.55): 305 ± 75 ng/L

— publication PMC4853610, “Systemic Dosing of Thymosin Beta 4 before and after Ischemia Does Not Attenuate Global Myocardial Ischemia-Reperfusion Injury in Pigs” (Frontiers in Pharmacology, 2016)
